Assay results reported in patent US20020183309A1, “Novel amines as histamine-3 receptor ligands and their therapeutic applications” (priority 2001, published 2002).

What follows are compounds tested against T1, histamine-3 receptors (H3 receptor) (Rattus norvegicus, UniProt Q9QYN8) (assay: (3H)-N-α-methylhistamine binding to rat cortical membranes). Details: not given.
T1 construct: from tissue; host or cells: male Sprague-Dawley rat brain cortex membranes
Procedure: Briefly, male Sprague-Dawley rat brain cortices were homogenized (1 g tissue/10 mL buffer) in 50 mM Tris-HCl/5 mM EDTA containing protease inhibitor cocktail (Calbiochem) using a polytron set at 20,500 rpm. Homogenates were centrifuged for 20 minutes at 40,000×g. The supernatant was decanted, and pellets were weighed. The pellet was resuspended by polytron homogenization in 40 mL 50 mM Tris-HCl/5 mM EDTA with protease inhibitors and centrifuged for 20 minutes at 40,000×g. […] Rat cortical membranes (12 mg wet weight/tube) were incubated with (^3H)-N-α-methylhistamine (˜0.6 nM) with or without H3 receptor antagonists in a total incubation volume of 0.5 mL of 50 mM Tris-HCl/5 mM EDTA (pH 7.7). Test compounds were dissolved in DMSO to provide a 20 mM solution, serially diluted and then added to the incubation mixtures prior to initiating the incubation assay by addition of the membranes. Thioperamide (3 μM) was used to determine nonspecific binding. Binding incubations were conducted for 30 minutes at 25° C. and terminated by addition of 2 mL of ice cold 50 mM Tris-HCl (pH 7.7) and filtration through 0.3% polyethylenimine-soaked Unifilter plates (Packard). These filters were washed 4 additional times with 2 mL of ice-cold 50 mM Tris-HCl and dried for 1 hour. Radioactivity was determined using liquid scintillation counting techniques. Results were analyzed by Hill transformation and Ki values were determined using the Cheng-Prusoff equation.

T1 sequence (Q9QYN8 whole entry): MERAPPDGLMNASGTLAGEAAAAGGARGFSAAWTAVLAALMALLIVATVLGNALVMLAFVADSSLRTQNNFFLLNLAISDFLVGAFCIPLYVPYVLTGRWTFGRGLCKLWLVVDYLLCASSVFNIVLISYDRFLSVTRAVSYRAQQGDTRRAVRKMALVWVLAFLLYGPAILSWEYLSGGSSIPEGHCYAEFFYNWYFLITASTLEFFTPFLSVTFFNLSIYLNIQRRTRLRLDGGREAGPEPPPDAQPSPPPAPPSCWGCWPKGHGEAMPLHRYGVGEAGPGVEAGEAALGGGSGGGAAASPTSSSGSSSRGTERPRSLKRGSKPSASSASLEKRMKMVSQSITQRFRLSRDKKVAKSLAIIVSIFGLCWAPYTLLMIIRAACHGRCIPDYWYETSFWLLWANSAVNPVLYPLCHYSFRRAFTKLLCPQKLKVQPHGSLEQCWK

Compound	Ki
CN(C)[C@@H]1CCN(CCc2cc3cc(-c4ccc(C#N)cc4)ccc3o2)C1 [Example 66, 4-(2-{2-[(3R)-3-(dimethylamino)pyrrolidinyl]ethyl}-1-benzofuran-5-yl)benzonitrile]	90.4 nM

Same assay, conditions: male Sprague-Dawley rat brain cortical membranes; (3H)-N-α-methylhistamine ~0.6 nM; 30 minutes at 25° C.; Cheng-Prusoff equation; read-out: Ki

Compound	Ki
CC(C)N(C)CCc1cc2cc(-c3ccc(C(=O)N4CCOCC4)cn3)ccc2o1 [Example 56, N-isopropyl-N-methyl-N-(2-{5-[5-(4-morpholinylcarbonyl)-2-pyridinyl]-1-benzofuran-2-yl}ethyl)amine]	105 nM
CCN(CCc1cc2cc(-c3ccc(C(=O)N4CCOCC4)cn3)ccc2o1)C(C)C [Example 57, N-ethyl-N-isopropyl-N-(2-{5-[5-(4-morpholinylcarbonyl)-2-pyridinyl]-1-benzofuran-2-yl}ethyl)amine]	115 nM
CN(C)CCc1cc2cc(-c3ccc(C(=O)N4CCOCC4)cn3)ccc2o1 [Example 58, N,N-dimethyl-N-(2-{5-[5-(4-morpholinylcarbonyl)-2-pyridinyl]-1-benzofuran-2-yl}ethyl)amine]	133 nM
CCCN(CC)CCc1cc2cc(-c3ccc(C(=O)N4CCOCC4)cn3)ccc2o1 [Example 59, N-ethyl-N-propyl-N-(2-{5-[5-(4-morpholinylcarbonyl)-2-pyridinyl]-1-benzofuran-2-yl}ethyl)amine]	79.1 nM
O=C(c1ccc(-c2ccc3oc(CCN4CCC5(CC4)OCCO5)cc3c2)nc1)N1CCOCC1 [Example 60, 8-(2-{5-[5-(4-morpholinylcarbonyl)-2-pyridinyl]-1-benzofuran-2-yl}ethyl)-1,4-dioxa-8-azaspiro[4.5]decane]	1000 nM
O=C(c1ccc(-c2ccc3oc(CCN4CC5CC4CO5)cc3c2)nc1)N1CCOCC1 (centres unmarked) [Example 61, 5-(2-{5-[5-(4-morpholinylcarbonyl)-2-pyridinyl]-1-benzofuran-2-yl}ethyl)-2-oxa-5-azabicyclo[2.2.1]heptane]	143 nM
C=CCNCCc1cc2cc(-c3ccc(C(=O)N4CCOCC4)cn3)ccc2o1 [Example 63, N-allyl-N-(2-{5-[5-(4-morpholinylcarbonyl)-2-pyridinyl]-1-benzofuran-2-yl}ethyl)amine]	1000 nM
O=C(c1ccc(-c2ccc3oc(CCNCCCO)cc3c2)nc1)N1CCOCC1 [Example 64, 3-[(2-{5-[5-(4-morpholinylcarbonyl)-2-pyridinyl]-1-benzofuran-2-yl}ethyl)amino]-1-propanol]	1000 nM
CCCNCCc1cc2cc(-c3ccc(C(=O)N4CCOCC4)cn3)ccc2o1 [Example 65, N-(2-{5-[5-(4-morpholinylcarbonyl)-2-pyridinyl]-1-benzofuran-2-yl}ethyl)-N-propylamine]	596 nM
C[C@@H]1CCCN1CCc1cc2cc(C(=O)c3cccc(Cl)c3)ccc2o1 [Example 71, (3-chlorophenyl)(2-{2-[(2R)-2-methyl-1-pyrrolidinyl]ethyl}-1-benzofuran-5-yl)methanone]	2 nM
COc1ccc(C(=O)c2ccc3oc(CCN4CCC[C@H]4C)cc3c2)cc1 [Example 73, (4-methoxyphenyl)(2-{2-[(2R)-2-methyl-1-pyrrolidinyl]ethyl}-1-benzofuran-5-yl)methanone]	2.9 nM
C[C@@H]1CCCN1CCc1cc2cc(C(=O)C3CC3)ccc2o1 [Example 75, cyclopropyl(2-{2-[(2R)-2-methyl-1-pyrrolidinyl]ethyl}-1-benzofuran-5-yl)methanone]	9.9 nM
CCC(CC)CC(=O)c1ccc2oc(CCN3CCC[C@H]3C)cc2c1 [Example 76, 3-ethyl-1-(2-{2-[(2R)-2-methyl-1-pyrrolidinyl]ethyl}-1-benzofuran-5-yl)-1-pentanone]	4 nM
Cc1cc(C(=O)c2ccc3oc(CCN4CCC[C@H]4C)cc3c2)ccc1Cl [Example 77, (4-chloro-3-methylphenyl)(2-{2-[(2R)-2-methyl-1-pyrrolidinyl]ethyl}-1-benzofuran-5-yl)methanone]	6 nM
CSc1ccc(C(=O)c2ccc3oc(CCN4CCC[C@H]4C)cc3c2)cc1 [Example 78, (2-{2-[(2R)-2-methyl-1-pyrrolidinyl]ethyl}-1-benzofuran-5-yl)[4-(methylthio)phenyl]methanone]	8.2 nM
C[C@@H]1CCCN1CCc1cc2cc(C(=O)c3ccc(N(C)C)cc3)ccc2o1 [Example 79, [4-(dimethylamino)phenyl](2-{2-[(2R)-2-methyl-1-pyrrolidinyl]ethyl}-1-benzofuran-5-yl)methanone]	3.8 nM
COc1ccccc1C(=O)c1ccc2oc(CCN3CCC[C@H]3C)cc2c1 [Example 82, (2-methoxyphenyl)(2-{2-[(2R)-2-methyl-1-pyrrolidinyl]ethyl}-1-benzofuran-5-yl)methanone]	1.6 nM
COc1cccc(C(=O)c2ccc3oc(CCN4CCC[C@H]4C)cc3c2)c1 [Example 83, (3-methoxyphenyl)(2-{2-[(2R)-2-methyl-1-pyrrolidinyl]ethyl}-1-benzofuran-5-yl)methanone]	1.1 nM
C[C@@H]1CCCN1CCc1cc2cc(C(=O)c3ccccc3)ccc2o1 [Example 84, (2-{2-[(2R)-2-methyl-1-pyrrolidinyl]ethyl}-1-benzofuran-5-yl)(phenyl)methanone]	2.8 nM
